Measurements: article PMC5996281, “Salinity Tolerance of Two Potato Cultivars (Solanum tuberosum) Correlates With Differences in Vacuolar Transport Activity” (Frontiers in Plant Science, 2018)

Experiments:
[1] = test system: T1, V-H^+-ATPase (cv. Mozart); assay: ACMA fluorescence quench, initial rate of H+ pumping in tonoplast vesicles; assay type: biochemical, Solanum tuberosum; conditions: 10 mM Mops-TRIS pH 7.0, 5 mM MgCl2, 100 mM KCl; vesicles from control plants (0 mM NaCl)
T1 construct: gene VHA-A; subunit A 69 kDa on blot; with V-type proton ATPase 16 kDa proteolipid subunit; V-type proton ATPase subunit a

[2] = test system: T2, V-H^+-ATPase (cv. Desiree); assay: as above; assay type: biochemical, Solanum tuberosum; conditions: 10 mM Mops-TRIS pH 7.0, 5 mM MgCl2, 100 mM KCl; vesicles from control plants (0 mM NaCl)
T2 construct: gene VHA-A; subunit A 69 kDa on blot; with V-type proton ATPase 16 kDa proteolipid subunit; V-type proton ATPase subunit a

[3] = test system: T3, V-H^+-PPase (cv. Desiree); conditions: 10 mM Mops-TRIS pH 7.0, 5 mM MgCl2, 100 mM KCl; vesicles from control plants (0 mM NaCl)
T3 construct: gene StVP1

V-H^+-PPase (cv. Mozart) = test system: T4, V-H^+-PPase (cv. Mozart); conditions: 10 mM Mops-TRIS pH 7.0, 5 mM MgCl2, 100 mM KCl; vesicles from control plants (0 mM NaCl)
T4 construct: gene StVP1

V-H^+-ATPase = biological target: T5, V-H^+-ATPase; assay: ACMA fluorescence quench, ATP-driven H+ pumping in tonoplast vesicles; assay type: biochemical, Solanum tuberosum; conditions: 1 mM Mg ATP, 10 mM Mops-TRIS pH 7.0, 5 mM MgCl2, 100 mM KCl; inhibition; cultivar not told
T5 construct: gene VHA-c; native V1Vo complex in tonoplast-enriched leaf vesicles; with V-type proton ATPase catalytic subunit A; V-type proton ATPase subunit B

Nc1ncnc2c1ncn2[C@@H]1O[C@H](COP(=O)(O)OP(=O)(O)OP(=O)(O)O)[C@@H](O)[C@H]1O [ATP] showed a Km [1] of 28 µM and a Km [2] of 81 µM.
With O=P(O)(O)OP(=O)(O)O [PPi] the Km [3] was 7.3 ± 1.1 µM and the Km (V-H^+-PPase (cv. Mozart)) was 9.6 ± 0.8 µM.
Work on CO/C1=C\C(C)=C\[C@@H](C)[C@@H](O)[C@@H](C)C/C(C)=C/C=C/[C@H](OC)[C@@H]([C@@H](C)[C@@H](O)[C@H](C)[C@@]2(O)C[C@@H](O)[C@H](C)[C@@H](C(C)C)O2)OC1=O [bafilomycin] yielded an EC50 (V-H^+-ATPase) of 0.2 nM.
